Source: patent publication US20040105861A1, “Use of factor XIIIa inhibitors to treat atherosclerosis” (SmithKline Beecham Corporation, priority 1997, published 2004)

Target: purified human Factor XIIIa (Homo sapiens, UniProt P00488)
Details: 10 mM EDTA added in the presence of Factor XIIIa 30 U/ml; fibrinogen 100 μg/ml, Lp(a) 500 μg/ml, 37° C., 30 minutes to 6 hours
Procedure: To determine if Factor XIIIa crosslinks Lp(a) with fibrinogen, Factor XIIIa was incubated with Lp(a) and fibrinogen in solution and then analyzed for Lp(a)-fibrinogen crosslinking over a time course ranging from 30 minutes to 6 hours. Briefly, purified human fibrinogen (Calbiochem, San Diego, Calif.), at a final concentration of 100 μg/ml, was incubated with purified human Lp(a) (Enzyme Research Laboratories, South Bend, Ind.) at a final concentration of 500 μg/ml, in the presence of purified human Factor XIIIa (Enzyme Research Laboratories, South Bend, Ind.) at 30 U/ml. As controls, Factor XIIIa was either omitted from the reaction or 10 mM EDTA was added in the presence of Factor XIIIa to inhibit Factor XIIIa activity. The reactions were conducted at 37° C. in a buffer of 40 mM Tris, 0.15 M NaCl, 5 mM dithiolthreitol, and 10 mM CaC12, at pH 8.3. Factor XIII was preactivated to Factor XIIIa immediately before each experiment by incubating Factor XIII with thrombin at 3 U/ml in 40 mM Tris and 0. 15 M NaCl, at pH 8.3 for 1 hour at room temperature. The activation procedure was stopped by adding hirudin at 100 U/ml (Sigma) to inhibit the thrombin. […]
To identify the presence of Lp(a) within the immunoprecipitated complexes, samples were analyzed by western blot using an antibody to Lp(a). […]

Chain of purified human Factor XIIIa (P00488 39-732 limits assumed): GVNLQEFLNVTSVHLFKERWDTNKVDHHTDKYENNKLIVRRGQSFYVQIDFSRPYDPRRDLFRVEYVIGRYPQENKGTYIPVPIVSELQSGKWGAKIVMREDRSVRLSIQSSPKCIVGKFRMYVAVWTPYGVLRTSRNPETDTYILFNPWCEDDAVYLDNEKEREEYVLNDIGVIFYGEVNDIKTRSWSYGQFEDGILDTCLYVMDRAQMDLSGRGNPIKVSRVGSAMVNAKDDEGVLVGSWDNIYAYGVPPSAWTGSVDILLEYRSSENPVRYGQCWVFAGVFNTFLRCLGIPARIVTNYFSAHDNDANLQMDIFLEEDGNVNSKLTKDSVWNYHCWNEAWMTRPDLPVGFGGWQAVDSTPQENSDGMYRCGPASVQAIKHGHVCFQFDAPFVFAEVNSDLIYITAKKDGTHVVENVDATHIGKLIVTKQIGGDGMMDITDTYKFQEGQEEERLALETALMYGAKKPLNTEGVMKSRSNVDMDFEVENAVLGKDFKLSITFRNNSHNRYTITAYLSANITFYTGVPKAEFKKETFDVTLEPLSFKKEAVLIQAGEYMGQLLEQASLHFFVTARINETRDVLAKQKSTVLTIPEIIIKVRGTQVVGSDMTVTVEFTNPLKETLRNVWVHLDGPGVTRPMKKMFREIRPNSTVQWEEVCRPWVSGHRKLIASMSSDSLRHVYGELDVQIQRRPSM

SMILES: O=C(O)CN(CCN(CC(=O)O)CC(=O)O)CC(=O)O [EDTA]
- Lp(a) crosslinked with fibrinogen (Lp(a) in anti-fibrinogen immunoprecipitated material, western blot): Lp(a) was not incorporated in the immunoprecipitated material
